Among the test systems are KM12; SNB-19; SK-MEL-2; HL-60; HT-29; NCI-H460; LOX IMVI; SK-MEL-5; RPMI-8226; DMS-273; DLD-1; CCRF-CEM; IGROV-1; OVCAR-5; A498; OVCAR-3; UACC-257; U-251; SK-OV-3; LXFL 529.
Common to all, as to experiment: NCI-60 cell line screen, 48 h

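In this assay, cells in 96-well plates receive the compound at five concentrations for 48 hours. Endpoints are linearly interpolated between the surrounding concentrations. GI50 marks 50% less growth.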 Activity calls are given as the source filed them. Cut-off read from the data, not from the text of the source: active = GI50 up to about 1.1 µM and inactive = higher.

Consider `OC[C@H]1O[C@@H](n2cnc3cncnc32)[C@H](O)[C@@H]1O` [NEBULARINE], for which the GI50 with KM12 was 1.01 µM (active); with SNB-19 it was 1.45 µM (inactive); in the experiment with SK-MEL-2, 1.67 µM (inactive); in the experiment with HL-60, 0.326 µM (active); in the experiment on HT-29, 0.377 µM (active); with NCI-H460, 0.593 µM (active). Moreover, the GI50 in the experiment on LOX IMVI is 0.977 µM (active); with SK-MEL-5, 1.67 µM (inactive); with RPMI-8226, 0.714 µM (active); with DMS-273, 0.59 µM (active); in the experiment with DLD-1, 0.536 µM (active); in the experiment on CCRF-CEM, 1.32 µM (inactive). For the same compound, the GI50 in the experiment on IGROV-1 was 0.64 µM (active); in the experiment on OVCAR-5, 1.4 µM (inactive); in the experiment on A498, 1.52 µM (inactive); in the experiment with OVCAR-3, 1.65 µM (inactive); with UACC-257, 1.61 µM (inactive); with U-251, 1.63 µM (inactive). Moreover, the GI50 in the experiment on SK-OV-3 is 0.953 µM (active).
As to `COC(=O)C1C(C)N1C` (stereo not given), the GI50 with KM12, in the experiment on SNB-19, in the experiment on HL-60, with HT-29, with NCI-H460 and in the experiment on LOX IMVI was > 100 µM (inactive) in each case. Also, the GI50 with SK-MEL-5, in the experiment with RPMI-8226, in the experiment with DMS-273, in the experiment with DLD-1, with CCRF-CEM and in the experiment on IGROV-1 was > 100 µM (inactive) in each case. Further, the GI50 in the experiment on LXFL 529, with OVCAR-3, in the experiment with UACC-257, with U-251 and in the experiment on SK-OV-3 was > 100 µM (inactive) in each case.
For the compound `CCOC(=O)NC(Nc1ncccn1)(C(=O)OCC)C(F)(F)F` (stereo not given), the GI50 in the experiment with KM12, in the experiment with SNB-19, with SK-MEL-2, in the experiment on HL-60, in the experiment on HT-29 and with NCI-H460 was > 100 µM (inactive) throughout. For the same compound, the GI50 with LOX IMVI, in the experiment on SK-MEL-5, in the experiment on RPMI-8226, with CCRF-CEM, in the experiment with IGROV-1 and in the experiment with OVCAR-5 was > 100 µM (inactive) throughout. Moreover, the GI50 in the experiment on OVCAR-3 was > 100 µM (inactive); with UACC-257, > 100 µM (inactive); with U-251, > 100 µM (inactive); with SK-OV-3, > 10 µM (inactive).
With `O=C=C=P(c1ccccc1)(c1ccccc1)c1ccccc1`, the GI50 is 48.9 µM (inactive) in the experiment with KM12; > 100 µM (inactive) in the experiment with SNB-19; 49.5 µM (inactive) in the experiment on SK-MEL-2; 11.1 µM (inactive) with HL-60; 86.9 µM (inactive) with NCI-H460; 40.1 µM (inactive) with LOX IMVI. Besides, the GI50 was 21.5 µM (inactive) in the experiment on SK-MEL-5; 27.3 µM (inactive) in the experiment on RPMI-8226; 36.9 µM (inactive) in the experiment with DMS-273; > 100 µM (inactive) with DLD-1; 76 µM (inactive) in the experiment with CCRF-CEM; 41.9 µM (inactive) with IGROV-1. The GI50 in the experiment on LXFL 529 is 35 µM (inactive); in the experiment with OVCAR-5 it was 28.5 µM (inactive); in the experiment on UACC-257, 27.8 µM (inactive); in the experiment with U-251, 72.1 µM (inactive); in the experiment on SK-OV-3 it was 48.3 µM (inactive).
`O=c1ccn(COC(COCc2ccccc2)COCc2ccccc2)c(=O)[nH]1`: the GI50 in the experiment with KM12 was > 100 µM (inactive); in the experiment with SNB-19, > 100 µM (inactive); with SK-MEL-2, > 100 µM (inactive); in the experiment on HL-60, 85.7 µM (inactive); in the experiment with HT-29, > 100 µM (inactive); in the experiment on NCI-H460 it was > 100 µM (inactive). Also, the GI50 in the experiment on LOX IMVI is > 100 µM (inactive); with SK-MEL-5 it was 76.4 µM (inactive); with RPMI-8226, > 100 µM (inactive); with CCRF-CEM it was > 100 µM (inactive); in the experiment on IGROV-1, > 100 µM (inactive); in the experiment on OVCAR-5, > 100 µM (inactive). For the same compound, the GI50 in the experiment on A498, in the experiment with OVCAR-3, with UACC-257, in the experiment with U-251 and with SK-OV-3 was > 100 µM (inactive) each time.
Regarding `Clc1ccc(C[P+](c2ccccc2)(c2ccccc2)c2ccccc2)c(Cl)c1`, the GI50 with KM12 is 1.69 µM (inactive); in the experiment with SNB-19 it was 3.04 µM (inactive); in the experiment on SK-MEL-2, 2.18 µM (inactive); in the experiment on HL-60, 0.8 µM (active); with HT-29, 1.66 µM (inactive); in the experiment with NCI-H460, 2.4 µM (inactive). Besides, the GI50 with LOX IMVI is 3.28 µM (inactive); with SK-MEL-5 it was 1.38 µM (inactive); in the experiment on RPMI-8226 it was 0.463 µM (active); in the experiment on DMS-273, 1.93 µM (inactive); in the experiment with CCRF-CEM it was 2.99 µM (inactive); in the experiment on IGROV-1, 1.87 µM (inactive). Besides, the GI50 is 1.67 µM (inactive) with LXFL 529; 2.37 µM (inactive) with OVCAR-5; 4.61 µM (inactive) with A498; 2.58 µM (inactive) in the experiment on OVCAR-3; 1.04 µM (active) in the experiment with UACC-257; 2.49 µM (inactive) with U-251. The GI50 in the experiment with SK-OV-3 is 3.75 µM (inactive).
Regarding `CCOC(=O)NC(Nc1ccc(Cl)cn1)(C(F)(F)F)C(F)(F)F`, the GI50 in the experiment on KM12, in the experiment with SNB-19, in the experiment on SK-MEL-2, in the experiment with HL-60, with HT-29 and with NCI-H460 was > 100 µM (inactive) throughout. In addition, the GI50 in the experiment with LOX IMVI, with RPMI-8226, in the experiment with CCRF-CEM, with OVCAR-5, with A498 and in the experiment with OVCAR-3 was > 100 µM (inactive) in each case. Moreover, the GI50 with UACC-257, in the experiment with U-251 and in the experiment with SK-OV-3 was > 100 µM (inactive) throughout.
Turning to `O=C1c2ccccc2C(=O)N1CC(O)COc1cccc2ccccc12` (stereo not given), the GI50 in the experiment with SNB-19 is > 100 µM (inactive); in the experiment on HL-60 it was > 100 µM (inactive); in the experiment on HT-29, > 100 µM (inactive); with NCI-H460, > 100 µM (inactive); with LOX IMVI, > 100 µM (inactive); in the experiment on SK-MEL-5, 63.5 µM (inactive). Moreover, the GI50 in the experiment on RPMI-8226 was > 100 µM (inactive); in the experiment with CCRF-CEM it was > 100 µM (inactive); in the experiment on IGROV-1 it was > 100 µM (inactive); with OVCAR-5, > 100 µM (inactive); with A498, 73.5 µM (inactive); in the experiment with OVCAR-3, > 100 µM (inactive). The GI50 with UACC-257, in the experiment with U-251 and in the experiment with SK-OV-3 was > 100 µM (inactive) throughout.
